Experimental findings from patent US10822587B2, “T cell balance gene expression, compositions of matters and methods of use thereof” (The Broad Institute, Inc., priority 2013, dated 2020) are described below.

Entries after “also recorded” stand apart in the source; their conditions may differ.

The subject of assay [1] is Th17 cells. Nature of the assay: IL-17 / IFN-γ production of Th17 cells differentiated with activated protein C (intracellular staining, ELISA). It is filed as cell-based, mouse. The note with it: aPC 300 nM, anti-CD3/anti-CD28, TGF-β+IL-6; flow cytometry day 3, ELISA day 3 and 5. As to the method: FIG. 20A depicts how naïve CD4+ T cells were differentiated into Th17 cells by anti-CD3/anti-CD28 stimulation in the presence of activated protein C (aPC, 300 nM), the ligand of PROCR. On day 3, cells were stimulated with PMA and Ionomycin for 4 hr, stained intracellularly for IFN-γ and IL-17 and analyzed by flow cytometry. FIG. 20B depicts IL-17 production from Th17 cells (TGF-β+IL-6) differentiated with or without activated protein C (aPC and Ctl, respectively) was assessed by ELISA on Day 3 and 5. FIG. 20C depicts how naïve CD4+ T cells were polarized under Th17 conditions (TGF-β+IL-6), transduced with either GFP control retrovirus (Ctl RV) or PROCR-expressing retrovirus (PROCR RV). Intracellular expression of IFN-γ and IL-17 in GFP+ cells were assessed by flow cytometry. FIG. 20D depicts how naïve CD4+ T cells from EPCR δ/δmice and control mice were polarized under Th17 conditions with TGF-β1 and IL-6. Intracellular expression of IFN-γ and IL-17 were assessed by flow cytometry. […]
Naïve T cells from knockout mice and their wild type controls were cultured as described above, their supernatants were collected after 72 h, and cytokine concentrations were determined by ELISA (antibodies for IL-17 and IL-10 from BD Bioscience) or by cytometric bead array for the indicated cytokines (BD Bioscience), according to the manufacturers' instructions (FIG. 5, FIG. 16).
For orientation: An ELISA detects its analyte on a solid surface through an enzyme-linked reagent.

In assay [2] the target is T1, PROCR (Mus musculus, UniProt Q64695).
T1 construct: endogenous in cells; host or cells: primary naïve CD4+ T cells (mouse spleen/lymph node) polarized to Th17 with TGF-β1 + IL-6
T1 sequence (Q64695 18-242): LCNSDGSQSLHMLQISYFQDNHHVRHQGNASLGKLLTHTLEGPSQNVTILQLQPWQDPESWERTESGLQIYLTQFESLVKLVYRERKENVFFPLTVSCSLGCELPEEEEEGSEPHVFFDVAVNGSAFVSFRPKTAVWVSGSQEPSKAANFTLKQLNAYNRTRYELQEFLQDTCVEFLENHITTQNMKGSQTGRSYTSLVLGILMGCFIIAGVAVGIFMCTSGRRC
Nature of the assay: Quantitative RT-PCR of pathogenic signature genes in Th17 cells differentiated in the presence of activated protein C. The assay is classed as cell-based. An excerpt: FIG. 23A depicts quantitative RT-PCR analysis of mRNA expression of several pathogenic signature genes in Th17 cells differentiated with TGFβ1 and IL-6 in the presence of activated protein C (aPC) for 3 days in vitro. FIG. 23B depicts quantitative RT-PCR analysis of mRNA expression of several pathogenic signature genes in naïve CD4^+ T cells polarized under Th17 conditions, transduced with either GFP control retrovirus (Control RV) or PROCR-expressing retrovirus (PROCR RV) for 3 days. FIG. 23C depicts quantitative RT-PCR analysis of mRNA expression of several pathogenic signature genes in Th17 cells from EPCR δ/δmice and control mice differentiated with TGFβ1 and IL-6 for 3 days in vitro.
FIGS. 32A, 32B, 32C and 32D are a series of graphs depicting how PROCR and PD-1 expression affects Th17 pathogenicity. FIG. 32A depicts signature genes of pathogenic and non-pathogenic Th17 cells. Naïve CD4+ T cells were differentiated into non-pathogenic (TGFβ+IL-6) or pathogenic (TGFβ3+IL-6 or IL-β+IL-6) Th17 cells and PROCR expression was determined by quantitative PCR. FIG. 32B depicts how naïve WT or PROCRd/d CD4+ T cells were stimulated under Th17 polarizing conditions (TGFβ+IL-6) in the presence or absence of aPC. Quantitative expression of three pathogenic signature genes was determined on day 3. […] Mice were monitored for EAE. […]. […]

For the substance activated protein C, the “cytokine production (IL-17, IFN-γ) from Th17 cells” value in assay [1] is given as “not essential for cytokine production from Th17 cells”. The “mRNA expression of pathogenic signature genes” value in assay [2] (Th17 cells differentiated with TGFβ1 and IL-6 in the presence of aPC for 3 days in vitro) is “impairs some pathogenic signature genes in Th17 cells; also recorded: induces a downregulation of the pathogenic signature genes IL-3, CXCL3, CCL4 and Pdp; also recorded: decreased the expression of some of the genes identified as a part of the pathogenic signature of Th17 cells”. The “expression of non-pathogenic signature genes” value in assay [2] (Th17 polarizing conditions (TGFβ+IL-6) in the presence or absence of aPC, day 3) is reported as “induces some non-pathogenic signature genes”.
